Consider two compounds from ChEMBL document CHEMBL4421720, “Tetrahydropyridopyrazines modulators of gpr6” (2016).

The assay concerns the target G-protein coupled receptor 6 (Homo sapiens, UniProt P46095). In words: Modulation activity at GPR6 receptor (unknown origin) expressed in CHO-K1 cells assessed as inhibition of constitutive cAMP activity incubated for 45 mins by Perkin Elmer Lance HTRF Ultrac-AMP assay. It is filed as functional, cell-based. For orientation: TR-FRET usually uses a lanthanide donor and a delayed reading to cut background.

G-protein coupled receptor 6, sequence (P46095 whole entry): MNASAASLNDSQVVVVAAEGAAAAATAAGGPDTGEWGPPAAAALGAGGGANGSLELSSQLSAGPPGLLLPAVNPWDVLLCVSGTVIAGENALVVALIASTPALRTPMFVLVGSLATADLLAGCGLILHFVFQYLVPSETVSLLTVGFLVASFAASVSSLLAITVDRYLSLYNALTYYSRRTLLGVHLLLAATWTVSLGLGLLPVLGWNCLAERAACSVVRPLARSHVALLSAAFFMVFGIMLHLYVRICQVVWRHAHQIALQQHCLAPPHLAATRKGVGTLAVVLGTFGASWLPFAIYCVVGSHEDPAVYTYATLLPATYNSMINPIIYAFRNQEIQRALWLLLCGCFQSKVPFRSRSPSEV

On to `CC(C)Nc1nc2c(nc1N1CCC(C(=O)c3cc(Cl)ccc3F)CC1)CCN(C)C2`, for which the IC50 (cho-k1) turned out to be 13.7 µM.

Turning to `CC(=O)N1CCc2nc(N3CCC(C(=O)c4cc(Cl)ccc4F)CC3)c(NC(C)C)nc2C1`, the IC50 was determined as 13.8 µM.

Broadly, the IC50 is the concentration at which inhibition is half-maximal.
